Source: US5610174A, “Use of α1A -selective adrenoceptor agonists for the treatment of urinary incontinence” (priority 1995, dated 1997)

Columns and labels:
[1] = target: T1, human histamine H2 receptor (Homo sapiens, UniProt P25021); assay: Radioligand binding at cloned human histamine H2; conditions: [3H]tiotidine
T1 construct: expressed in transfected cells; host or cells: COS-7 (plasmid pcEXV-H2, ATCC 75345)
Method: Human Histamine H2 Receptor
The coding sequence of the human H2 receptor was obtained from a human placenta genomic library, and cloned into the cloning site of PCEXV-3 eukaryotic expression vector. The plasmid DNA for the H2 receptor is designated pcEXV-H2, and was deposited on Nov. 6, 1992 under ATCC Accession No. 75345. This construct was transfected into COS-7 cells by the DEAE-dextran method. Cells were harvested after 72 hours and lysed by sonication in 5 mM Tris-HCl, 5 mM EDTA, pH 7.5. The cell lysates were centrifuged at 1000 rpm for 5 min at 4° C., and the supernatant was centrifuged at 30,000×g for 20 min at 4° C. The pellet was suspended in 37.8 mM NaHPO4, 12.2 mM K2PO4, pH 7.5. The binding of the histamine H2 antagonist [3H] tiotidine (5 nM, specific activity: about 70 Ci/mM) was done in a final volume of 0.25 ml and incubated at room temperature for 60 min. Nonspecific binding was determined in the presence of 10 μM histamine. The bound radioligand was separated by filtration through GF/B filters using a cell harvester.

α2-adrenoceptors = assay: Activity at human α2-adrenoceptors (overall statement); type: cell-based; conditions: result in words
Method: α2 -Adrenoceptor-Mediated Inhibition of Forskolin Stimulated Adenylyl Cyclase
The agonist activity of test compounds was assayed by measuring their ability to inhibit adenylyl cyclase in cells stably transfected with each of the three cloned human α2 -adrenoceptors. LM(tk-) cells expressing the α2A - or the α2C -, as well as Y1 cells expressing the α2B -adrenoceptor were used. […] The formation of cyclic AMP was measured in cultures incubated with DMEM containing 1 mM theophylline. Twelve concentrations of the test compounds (from 10 pM to 100 μM) were added to the incubation medium and incubated at 37° C. for 20 min. Following this incubation step, 10 μM forskolin was added to stimulate the formation of cyclic AMP, and the cultures were incubated for another 10 min. The reaction was stopped by replacing the incubation medium with 100 mM HCl . The intracellular levels of cyclic AMP were measured by radioimmunoassay. The data from concentration-response curves was fitted to a four-parameter logistic equation, by non-linear regression analysis, to determine the pEC50 and intrinsic activity.

[2] = target: T2, rabbit urethra, female (α1-adrenoceptor) (Oryctolagus cuniculus, UniProt O02824); assay: Contractile study in isolated female rabbit urethra; conditions: versus phenylephrine-induced contraction; read-out: pKB Rabbit Urethra Female (converted)
T2 construct: proximal urethra of male humans and male and female rabbits; from tissue; host or cells: rabbit proximal urethra strips, male or female
T2 sequence (O02824 1-466): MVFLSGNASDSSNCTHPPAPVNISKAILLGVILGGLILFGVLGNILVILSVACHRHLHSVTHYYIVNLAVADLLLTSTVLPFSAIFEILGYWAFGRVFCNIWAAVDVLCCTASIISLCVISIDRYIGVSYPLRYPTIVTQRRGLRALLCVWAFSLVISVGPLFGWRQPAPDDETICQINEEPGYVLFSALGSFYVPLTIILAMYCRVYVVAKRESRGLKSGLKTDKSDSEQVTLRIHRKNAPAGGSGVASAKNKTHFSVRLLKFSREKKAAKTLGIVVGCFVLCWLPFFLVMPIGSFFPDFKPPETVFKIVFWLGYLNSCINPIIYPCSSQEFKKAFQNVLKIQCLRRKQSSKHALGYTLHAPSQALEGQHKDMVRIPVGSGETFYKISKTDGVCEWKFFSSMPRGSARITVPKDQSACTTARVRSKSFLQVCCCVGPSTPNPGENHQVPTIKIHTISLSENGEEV
From the text: In addition, similar studies were done using bladder neck tissue from female dogs. In order to identify the specific receptor subtype in each tissue, the pharmacological profile was compared to the profiles for these same drugs at the cloned human α1A, α1B, or α1C subtypes.
Tissue samples from the proximal urethra of male humans and male and female rabbits, as well as tissue samples from both the proximal urethra and bladder neck of male and female dogs were cut into transverse strips (3×10 mm) and suspended under 0.5 g tension in Krebs' physiological buffer at 37° C. To determine agonist potency (pEC50 )and antagonist affinity constants (pKB), concentration-effect curves to the non-selective agonist phenylepherine were constructed in the absence and in the presence of increasing concentrations of the antagonist. Up to four sequential curves were constructed in each tissue. Antagonists were allowed to equilibrate for 1h before each concentration-effect curve, and the drugs were completely washed out in between successive curves. In each experiment, one tissue served as a "time control", in which no antagonist was added so that changes in tissue sensitivity could be assessed as a function of time. […] In instances in which a single concentration of antagonist was used, pKB values were determined by the equation: […], where CR is defined as the ratio of the agonist EC50 in the presence of the antagonist to that in the absence of the antagonist.

T1 sequence (P25021 whole entry): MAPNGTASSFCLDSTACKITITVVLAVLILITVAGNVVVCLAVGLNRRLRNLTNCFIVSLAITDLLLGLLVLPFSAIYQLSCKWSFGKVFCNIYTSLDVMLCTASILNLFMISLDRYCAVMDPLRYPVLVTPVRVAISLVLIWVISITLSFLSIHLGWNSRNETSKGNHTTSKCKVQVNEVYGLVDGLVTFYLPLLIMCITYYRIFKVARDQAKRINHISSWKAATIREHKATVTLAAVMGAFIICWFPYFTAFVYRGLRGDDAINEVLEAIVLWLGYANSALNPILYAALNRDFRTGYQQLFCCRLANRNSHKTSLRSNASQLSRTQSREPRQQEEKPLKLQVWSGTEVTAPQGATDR

SMILES	activity at α2-adrenoceptors (α2-adrenoceptors)	Kb [2] [nM]	other results
CNCCc1ccc(O)c(NS(C)(=O)=O)c1 [SK&F 102652]	significant activity		pKi H2 [1]: 4.6
COc1cc2c(cc1OC)CN(c1cc(N)c3cc(OC)c(OC)cc3n1)CC2 [Abanoquil, 2-(6,7-Dimethoxy-3,4-dihydro-1H-isoquinolin-2-yl)-6,7-dimethoxyquinolin-4-ylamine hemifumarate hydrate]		2	
CS(=O)(=O)Nc1c(O)ccc2c1CCCC2C1=NCCN1 (racemic) [Compound A-61603, (±)-N-[5-(4,5-Dihydro-1H-imidazol-2-yl)-2-hydroxy-5,6,7,8-tetra-hydronaphthalen-1-yl]methanesulfonamide]	significant activity		
COc1ccc(SC)c2c1C[C@@H]1[C@@H](C2)OCCN1C (relative stereo) [SDZ NVI-085, (±)-trans-4-Methyl-6-methoxy-9-thiomethoxy-3,4,4a, 5,10,10a-hexahydro-2H-naphtho[2,3-b][1,4]oxazine]			Ki ([1]; read-out: pKi H2 (converted)): 6310 nM
COc1ccccc1N1CCN(CCCNc2c(C)c(=O)n(C)c(=O)n2C)CC1 [Compound 5-MU]		39.8	
